Results reported in patent publication US10570122B2, “Compounds with anti-tumoral activity” (AB Science, priority 2015, dated 2020).
pIC50: −log10 of the molar value.

Experiments:
[1] = test system: BT20; assay: CellTiter-Blue cell-based survival/proliferation assay, BT20; conditions: Homo sapiens, BT-20; BT20 breast tumor cell line, 48 h
How it was run: (§1)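 Compounds, diluted tenfold serially over 0–10 μM, are applied to 1·10^4 seeded cells per well for 48 h at 37 °C. Resorufin formed during a further 4 h with CellTiter-Blue is detected by fluorescence emission at 590 nm.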

[2] = test system: CLS354; assay: CellTiter-Blue cell-based survival/proliferation assay, CLS354; conditions: Homo sapiens, CLS-354; CLS354_4 head & neck tumor cell line, 48 h
How it was run: as §1

[3] = test system: REC1; assay: CellTiter-Blue cell-based survival/proliferation assay, REC1; conditions: Homo sapiens, Lymphoma cell line REC1, 48 h, read-out: Anti-tumoral activity (measured IC50) REC1
Description: (§2) Cell-Based Proliferation Screening of Compounds
(§3) CellTiter-Blue cell-based survival/proliferation assay (Promega G8080) was performed on tumor cell lines. A total of 1·10^4 cells/well/50 μl were seeded in a 96-wells plate. Treatment was initiated by addition of a 2× drug solution of 1/10 serial dilutions ranging from 0 to 10 μM. Cells were grown for 48 h at 37° C. and then incubated with 10 μl/well of Promega CellTiter-Bleue reagent for 4 h at 37° C. The amount of resorufin dye formed was quantified by its fluorescence emission at 590 nm using a scanning multiwell spectrophotometer (OPTIMA, BMG labtech, France). A blank well without cells was used as a background control for the spectrophotometer.

[4] = test system: HUT78; assay: CellTiter-Blue cell-based survival/proliferation assay, HUT78; conditions: Homo sapiens, Lymphoma cell line HUT78, 48 h, read-out: Anti-tumoral activity (measured IC50) HUT78
Description: as §2, §3

[5] = test system: panel of about 34 human tumor cell lines; assay: Cell-based proliferation screening on panel of tumor cell lines; conditions: solid tumor cell line, cell line unknown, 48 h, read-out: IC50, solid tumor cell line of column 6 (last section of Table 3)
How it was run: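 CellTiter-Blue survival assay with 1·10^4 cells/well, each line treated 48 h at 37° C with 1/10 serial dilutions from 0 to 10 μM. Resorufin formed during a 4 h reagent incubation is read by fluorescence at 590 nm. A cell-free blank serves as background.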

[6] = test system: AGS; assay: CellTiter-Blue cell-based survival/proliferation assay, AGS; conditions: Homo sapiens; AGS stomach tumor cell line, 48 h
How it was run: as §1

[7] = test system: OPM2; assay: CellTiter-Blue cell-based survival/proliferation assay, OPM2; conditions: Homo sapiens, OPM-2, Myeloma cell line OPM2, 48 h, read-out: Anti-tumoral activity (measured IC50) OPM2
How it was run: as §1

[8] = test system: A498; assay: CellTiter-Blue cell-based survival/proliferation assay, A498; conditions: Homo sapiens; A498 kidney tumor cell line, 48 h
How it was run: as §1

[9] = test system: A549; assay: CellTiter-Blue cell-based survival/proliferation assay, A549; conditions: Homo sapiens; A549 lung tumor cell line, 48 h
How it was run: as §1

[10] = test system: TOV112D; assay: CellTiter-Blue cell-based survival/proliferation assay, TOV112D; conditions: Homo sapiens; TOV112D ovary tumor cell line, 48 h
How it was run: as §1

[11] = test system: MDAMB231; assay: CellTiter-Blue cell-based survival/proliferation assay, MDAMB231; conditions: Homo sapiens, MDA-MB-231; MDAMB231 breast tumor cell line, 48 h
How it was run: as §1

[12] = test system: HGC27; assay: CellTiter-Blue cell-based survival/proliferation assay, HGC27; conditions: Homo sapiens, HGC-27; HGC27 stomach tumor cell line, 48 h
How it was run: as §1

[13] = test system: HEPG2; assay: CellTiter-Blue cell-based survival/proliferation assay, HEPG2; conditions: Homo sapiens; HEPG2 liver tumor cell line, 48 h
How it was run: as §1

[14] = test system: PANC1; assay: CellTiter-Blue cell-based survival/proliferation assay, PANC1; conditions: Homo sapiens, PANC-1; PANC_1 pancreas tumor cell line, 48 h
How it was run: as §1

[15] = test system: MESSA; assay: CellTiter-Blue cell-based survival/proliferation assay, MESSA; conditions: Homo sapiens, MES-SA; MESSA ovary tumor cell line, 48 h
How it was run: as §1

[16] = test system: PC3; assay: CellTiter-Blue cell-based survival/proliferation assay, PC3; conditions: Homo sapiens, PC-3; PC3 prostate tumor cell line, 48 h
How it was run: as §1

[17] = test system: CALU6; assay: CellTiter-Blue cell-based survival/proliferation assay, CALU6; conditions: Homo sapiens, Calu-6; CALU6 lung tumor cell line, 48 h
How it was run: as §1

[18] = test system: SW579; assay: CellTiter-Blue cell-based survival/proliferation assay, SW579; conditions: Homo sapiens; SW579 head & neck tumor cell line, 48 h
How it was run: as §1

[19] = test system: DLD1; assay: CellTiter-Blue cell-based survival/proliferation assay, DLD1; conditions: Homo sapiens, DLD-1; DLD_1 colorectal tumor cell line, 48 h
How it was run: as §1

[20] = test system: BXPC3; assay: CellTiter-Blue cell-based survival/proliferation assay, BXPC3; conditions: Homo sapiens, BXPC-3; BXPC3 pancreas tumor cell line, 48 h
How it was run: as §1

[21] = test system: HL60; assay: CellTiter-Blue cell-based survival/proliferation assay, HL60; conditions: Homo sapiens, HL-60, Leukemia cell line HL60, 48 h, read-out: Anti-tumoral activity (measured IC50) HL60
How it was run: as §1

[22] = test system: PLCPRF5; assay: CellTiter-Blue cell-based survival/proliferation assay, PLCPRF5; conditions: Homo sapiens, PLC-PRF-5; PLC_PRF5 liver tumor cell line, 48 h
How it was run: as §1

[23] = test system: KARPAS299; assay: CellTiter-Blue cell-based survival/proliferation assay, KARPAS299; conditions: Homo sapiens, KARPAS-299, Lymphoma cell line KARPAS299, 48 h, read-out: Anti-tumoral activity (measured IC50) KARPAS299
Description: as §2, §3

[24] = test system: HEP2; assay: CellTiter-Blue cell-based survival/proliferation assay, HEP2; conditions: Homo sapiens, HEp-2; HEP2 head & neck tumor cell line, 48 h
How it was run: as §1

[25] = test system: ACHN; assay: CellTiter-Blue cell-based survival/proliferation assay, ACHN; conditions: Homo sapiens; ACHN kidney tumor cell line, 48 h
How it was run: as §1

[26] = test system: H1299; assay: CellTiter-Blue cell-based survival/proliferation assay, H1299; conditions: Homo sapiens, NCI-H1299; H1299 lung tumor cell line, 48 h
How it was run: as §1

[27] = test system: HCT116; assay: CellTiter-Blue cell-based survival/proliferation assay, HCT116; conditions: Homo sapiens, HCT-116; HCT116 colorectal tumor cell line, 48 h
How it was run: as §1

[28] = test system: DU145; assay: CellTiter-Blue cell-based survival/proliferation assay, DU145; conditions: Homo sapiens, DU-145; DU145 prostate tumor cell line, 48 h
How it was run: as §1

pIC50 [5]	Compound	pIC50 [1]	pIC50 [2]	pIC50 [3]	pIC50 [4]	pIC50 [6]	pIC50 [7]	pIC50 [8]	pIC50 [9]	pIC50 [10]	pIC50 [11]	pIC50 [12]	pIC50 [13]	pIC50 [14]	pIC50 [15]	pIC50 [16]	pIC50 [17]	pIC50 [18]	pIC50 [19]	pIC50 [20]	further results
< 6.00	CCOCc1ccc(C)c(Nc2ncc(-c3ccc(-n4ccnn4)cc3)o2)c1 [Example 035, (5-Ethoxymethyl-2-methyl-phenyl)-[5-(4-[1,2,3]triazol-1-yl-phenyl)-oxazol-2-yl]-amine]	< 6.00	< 6.00	6.00 to 6.30	6.00 to 6.30	< 6.00	< 6.00	< 6.00	< 6.00	6.00 to 6.30	< 6.00	< 6.00	< 6.00	< 6.00	< 6.00	< 6.00	< 6.00	< 6.00	< 6.00	< 6.00	pIC50 [21]: < 6.00; pIC50 [22]: < 6.00; pIC50 [23]: 6.00 to 6.30; pIC50 [24]: < 6.00; pIC50 [25]: < 6.00; pIC50 [26]: < 6.00; pIC50 [27]: < 6.00; pIC50 [28]: < 6.00
< 6.00	CCOCc1ccc(C)c(Nc2ncc(-c3ccc(-n4ccc(C)n4)cc3)o2)c1 [Example 039, (5-Ethoxymethyl-2-methyl-phenyl)-{5-[4-(3-methyl-pyrazol-1-yl)-phenyl]-oxazol-2-yl}-amine]	< 6.00	< 6.00	6.00 to 6.30	6.00 to 6.30	< 6.00	< 6.00	< 6.00	< 6.00	< 6.00	< 6.00	< 6.00	< 6.00	< 6.00	< 6.00	< 6.00	< 6.00	< 6.00	< 6.00	< 6.00	pIC50 [21]: 6.00 to 6.30; pIC50 [22]: < 6.00; pIC50 [23]: 6.00 to 6.30; pIC50 [24]: < 6.00; pIC50 [25]: < 6.00; pIC50 [26]: < 6.00; pIC50 [27]: < 6.00; pIC50 [28]: < 6.00

The next lines start with the molecule.

Compound	pIC50 [5]	pIC50 [1]	pIC50 [2]	pIC50 [3]	pIC50 [4]	pIC50 [6]	pIC50 [7]	pIC50 [8]	pIC50 [9]	pIC50 [10]	pIC50 [11]	pIC50 [12]	pIC50 [13]	pIC50 [14]	pIC50 [15]	pIC50 [16]	pIC50 [17]	pIC50 [18]	pIC50 [19]	pIC50 [20]	further results
CCOCc1ccc(C)c(Nc2ncc(-c3ccc(-n4nccn4)cc3)o2)c1 [Example 036, (5-Ethoxymethyl-2-methyl-phenyl)-[5-(4-[1,2,3]triazol-2-yl-phenyl)-oxazol-2-yl]-amine]	6.30 to 7.00	6.00 to 6.30	≥ 7.00	≥ 7.00	≥ 7.00	≥ 7.00	6.30 to 7.00	< 6.00	< 6.00	≥ 7.00	< 6.00	≥ 7.00	6.30 to 7.00	< 6.00	< 6.00	6.30 to 7.00	6.00 to 6.30	< 6.00	< 6.00	< 6.00	pIC50 [21]: 6.30 to 7.00; pIC50 [22]: < 6.00; pIC50 [23]: ≥ 7.00; pIC50 [24]: 6.30 to 7.00; pIC50 [25]: 6.30 to 7.00; pIC50 [26]: 6.00 to 6.30; pIC50 [27]: < 6.00; pIC50 [28]: < 6.00
CCOCc1ccc(C)c(Nc2ncc(-c3ccc(-c4nccs4)cc3)o2)c1 [Example 038, (5-Ethoxymethyl-2-methyl-phenyl)-[5-(4-thiazol-2-yl-phenyl)-oxazol-2-yl]-amine]	6.00 to 6.30	< 6.00	< 6.00	6.30 to 7.00	< 6.00	< 6.00	6.30 to 7.00	< 6.00	< 6.00	< 6.00	< 6.00	< 6.00	< 6.00	< 6.00	< 6.00	< 6.00	< 6.00	< 6.00	< 6.00	< 6.00	pIC50 [21]: 6.30 to 7.00; pIC50 [22]: < 6.00; pIC50 [23]: < 6.00; pIC50 [24]: 6.00 to 6.30; pIC50 [25]: < 6.00; pIC50 [26]: < 6.00; pIC50 [27]: < 6.00; pIC50 [28]: < 6.00
CCOCc1ccc(C)c(Nc2ncc(-c3ccc(-n4cc(C)cn4)cc3)o2)c1 [Example 040, (5-Ethoxymethyl-2-methyl-phenyl)-{5-[4-(4-methyl-pyrazol-1-yl)-phenyl]-oxazol-2-yl}-amine]	< 6.00	< 6.00	< 6.00	< 6.00	< 6.00	< 6.00	< 6.00	< 6.00	< 6.00	< 6.00	< 6.00	< 6.00	< 6.00	< 6.00	< 6.00	< 6.00	< 6.00	< 6.00	< 6.00	< 6.00	pIC50 [21]: < 6.00; pIC50 [22]: < 6.00; pIC50 [23]: < 6.00; pIC50 [24]: < 6.00; pIC50 [25]: < 6.00; pIC50 [26]: < 6.00; pIC50 [27]: < 6.00; pIC50 [28]: < 6.00
CCOCc1ccc(C)c(Nc2ncc(-c3ccc(N4CCN(C)C4=O)cc3)o2)c1 [Example 044, 1-{4-[2-(5-Ethoxymethyl-(2-methyl-phenylamino))-oxazol-5-yl]-phenyl}-3-methyl-imidazolidin-2-one]	6.30 to 7.00	< 6.00	6.00 to 6.30	6.30 to 7.00	6.00 to 6.30	< 6.00	6.00 to 6.30	< 6.00	< 6.00	< 6.00	< 6.00	< 6.00	< 6.00	< 6.00	< 6.00	6.00 to 6.30	< 6.00	< 6.00	< 6.00	< 6.00	pIC50 [21]: 6.30 to 7.00; pIC50 [22]: < 6.00; pIC50 [23]: 6.30 to 7.00; pIC50 [24]: < 6.00; pIC50 [25]: < 6.00; pIC50 [26]: < 6.00; pIC50 [27]: < 6.00; pIC50 [28]: < 6.00
CCOCc1ccc(C)c(Nc2ncc(-c3ccc(N4CCN(CCN)C4=O)cc3)o2)c1 [Example 045, 1-(2-Amino-ethyl)-3-{4-[2-(5-ethoxymethyl-(2-methyl-phenylamino))-oxazol-5-yl]-phenyl}-imidazolidin-2-one]	< 6.00	< 6.00	< 6.00	< 6.00	< 6.00	< 6.00	< 6.00	< 6.00	< 6.00	< 6.00	< 6.00	< 6.00	< 6.00	< 6.00	< 6.00	< 6.00	< 6.00	< 6.00	< 6.00	< 6.00	pIC50 [21]: < 6.00; pIC50 [22]: < 6.00; pIC50 [23]: < 6.00; pIC50 [24]: < 6.00; pIC50 [25]: < 6.00; pIC50 [26]: < 6.00; pIC50 [27]: < 6.00; pIC50 [28]: < 6.00
